Measured values taken from PubChem BioAssay (NCI).
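Following 48 hours of exposure in 96-well plates, responses at five concentrations were used to interpolate endpoints linearly. TGI marks complete inhibition of growth.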

Key:
Experiment in all cases: DTP human tumour cell line panel, 48 h
SF-539 CNS = test system: SF-539 CNS
SK-MEL-2 melanoma = test system: SK-MEL-2 melanoma
HL-60(TB) leukemia = test system: HL-60(TB) leukemia
MDA-MB-435 = test system: MDA-MB-435
MCF7 breast = test system: MCF7 breast
MALME-3M melanoma = test system: MALME-3M melanoma
NCI-H226 lung = test system: NCI-H226 lung
SN12C renal = test system: SN12C renal
UACC-62 melanoma = test system: UACC-62 melanoma
SK-MEL-28 melanoma = test system: SK-MEL-28 melanoma

Row | Structure (SMILES) | TGI (SF-539 CNS) [µM] | TGI (SK-MEL-2 melanoma) [µM] | TGI (HL-60(TB) leukemia) [µM] | TGI (MDA-MB-435) [µM] | TGI (MCF7 breast) [µM] | TGI (MALME-3M melanoma) [µM] | TGI (NCI-H226 lung) [µM] | TGI (SN12C renal) [µM] | TGI (UACC-62 melanoma) [µM] | TGI (SK-MEL-28 melanoma) [µM]
1 | CCOC(=O)c1sc2ncnc(N)c2c1C | > 100 | > 100 | > 100 | > 100 | > 100 | > 100 | > 100 | > 100 | > 100 | > 100
2 | O=S1(=O)c2cnccc2NC(=NCc2ccccc2)N1c1ccccc1 | > 100 | > 100 | > 100 | > 100 | > 100 | > 100 | > 100 | > 100 | > 100 | > 100
3 | O=C(OCC1OC(n2nc(Cn3nnc(-c4cccnc4)n3)n(-c3cccc4ccccc34)c2=S)C(OC(=O)c2ccccc2)C1OC(=O)c1ccccc1)c1ccccc1 (stereo not given) | > 100 | > 100 | > 100 | > 100 | > 100 | > 100 | > 100 | > 100 | > 100 | > 100
4 | O=C(O)CN(CC(=O)O)C(C(=O)O)c1ccccc1 (stereo not given) | > 100 | > 100 | > 100 | > 100 | > 100 | > 100 | > 100 | > 100 | > 100 | > 100
5 | CCN(CC)CCO/N=C1\CC[C@H]2[C@@H]3CCc4cc(OC)ccc4[C@H]3CC[C@]12C | 3.92 | 5.07 | 3.12 | 1.48 | 9.49 | 3.28 | 4.69 | 8.12 | 2.02 | 1.28
6 | O=c1c2ccccc2sc2ccccc12 | > 100 | > 100 | > 100 | > 100 | > 100 | > 100 | > 100 | > 100 | > 100 | > 100
7 | C[C@H]1[C@H](C)CC[C@]2(C(=O)OC3OC(CO)C(O)C(O)C3O)CC[C@]3(C)C(=CC[C@@H]4[C@@]5(C)C[C@H]6OC(=O)c7cc(O)c(O)c(O)c7-c7c(cc(O)c(O)c7O)C(=O)O[C@@H]6C(CO)(CO)[C@@H]5CC[C@]43C)[C@H]12 (stereo not given in full) | > 100 | > 100 | > 100 | 36.2 | 38.5 | > 100 | > 100 | > 100 | > 100 | > 100
8 | O=S1SC(=S)C2C=CC=CC21 (stereo not given) | > 100 | > 100 | > 100 | > 100 | > 100 | > 100 | > 100 | > 100 | > 100 | > 100
9 | C[n+]1c(/C=C/c2ccc(O)c3ncccc23)[se]c2ccccc21 | 21.3 | 18.3 | 7.66 | 28.4 | 14.8 | 20.3 | 30.5 | 16.1 | 18.3 | 52.9
10 | COc1nc2c(N3CCCC3)nc(N3CCNCC3)nc2nc1NCc1ccccc1 | 3.21 | 3.11 | 3.7 | 2.95 | 3.46 | 3.55 | 7.1 | 4.95 | 3.29 | 3.92
11 | C(=C\c1ccccc1)/COc1ccccc1C(N1CCOCC1)n1nc2ccccc2n1 (stereo not given) | 6.62 | 24.2 | 1.45 | 1.9 | 6.57 | 14.4 | 28.7 | 24.1 | 16.4 | 32.7
12 | CCOP(=O)(OCC)OC1CC(n2cc(C)c(=O)n(C)c2=O)OC1CO[Si](C)(C)C(C)(C)C (stereo not given) | > 100 | > 100 | 57.4 | > 100 | > 100 | > 100 | > 100 | > 100 | > 100 | > 100
13 | COC(=O)N1N=C(c2ccccc2)C1c1ccccc1 (stereo not given) | > 100 | > 100 | > 100 | > 100 | > 100 | > 100 | 77.1 | > 100 | 63.3 | > 100
14 | CC(C)C1=C(O)C2=C(C(=O)C1=O)C1(C)CCCC(C)(C)C1C(O)C2OC=O (stereo not given) | 31.5 | 28.6 | 18.7 | 11.8 | 27.7 | 23.7 | 20.2 | 23.2 | 19.4 | 13.1
15 | Cc1cc(O)c(-c2cc(O)c(C)cc2O)cc1O | 9.35 | 33 | 3.88 | 9.32 | 47.6 | 25.5 | 46.4 | 13.6 | 29.8 | 22.7
16 | O=C1C(C(O)(C(F)(F)F)C(F)(F)F)CCC1C(O)(C(F)(F)F)C(F)(F)F (stereo not given) | > 43.5 | 11 | 6.44 | > 67.6 | 2.26 | 17.9 | 4.44 | 30.9 | > 100 | > 73.2
